Values quoted from earlier work as cited in patent US20040248925A1, “Use of 4-phenyl substituted tetrahydroisoquinolines in the treatment of pain, migraine and urinary incontinence” (priority 2002, published 2004).

Conditions: following treatment with imipramine; background statement

## CN(C)CCCN1c2ccccc2CCc2ccccc21 [imipramine, Imipramine]
  further patients in whom improvements can be seen: 15-20%
  patients in whom enuresis can be cured: over 50%
